Earlier results as cited in patent US6001882A (priority 1997, dated 1999).

What was measured:
[1] = cited from earlier work
psoriasis = settings: systemic, with long wavelength ultraviolet light; cited from earlier work

Row | Compound | conversion on exposure to visible light [1] | amelioration of psoriasis (psoriasis)
1 | Cc1cc(O)c2c(=O)c3c(O)cc(O)c4c5c(O)cc(O)c6c(=O)c7c(O)cc(C)cc7c(c65)c(c2c1)c34 [protohypericin] | converted to hypericin upon exposure to visible light | –
2 | C=Cc1c2[n-]c(c1C)/C=c1\[n-]/c(c(C)c1C=C)=C\c1[n-]c(c(CCC(=O)O)c1C)/C=c1\[n-]c(c(C)c1CCC(=O)O)=C2.[Sn+4] [tin-protoporphyrin] | – | effects amelioration of psoriasis in psoriatic patients
